Among the test systems are BT-549 breast; SN12K1 renal; P388/ADR leukemia; P388 leukemia; RXF-631 renal; LXFL 529 NSCLC.
Common to all, as to experiment: NCI tumour cell line growth inhibition, 48 h

Molecules are shown by their SMILES. Where “and” joins values, the source holds several entries; their conditions need not be identical. Equal values may be shown once.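 Exposure lasted 48 hours, with cells grown in 96-well plates and compounds tested at five concentrations. GI50: concentration for 50% inhibition of growth. TGI marks complete inhibition of growth.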

In the case of `CN(C)c1ccc(/C=C2/SC(=S)NC2=O)cc1`, the TGI in the experiment on BT-549 breast is above 100 µM.
`CC1=C(C)C(=O)O[C@@H]([C@](C)(O)[C@]2(O)CC[C@@]3(O)[C@@H]4C[C@H]5O[C@]56[C@@H](O)C=CC(=O)[C@]6(C)[C@H]4CC[C@]23C)C1`: the GI50 is 1.4 µM and 5.89 µM in the experiment with SN12K1 renal; 2500 nM and 487 nM in the experiment with P388/ADR leukemia; 170 nM and 61.6 nM in the experiment with P388 leukemia. Further, the TGI was 6.39 µM and 21.6 µM with SN12K1 renal; 98.8 µM and 250 µM with P388/ADR leukemia.
In the experiment with BT-549 breast, `O=c1[nH]c(Nc2ccc(F)c(Cl)c2)nc2nc[nH]c12` had a TGI above 100 µM.
Take `CC1C(=O)OC2CC[N+]3(CC(=O)c4ccc(Br)cc4)CC=C(COC(=O)C(C)(O)C1(C)O)C23` (configuration not stated): the TGI in the experiment on SN12K1 renal is above 375 µM; in the experiment on P388/ADR leukemia it was above 375 µM; with P388 leukemia it was above 174 µM.
Regarding `COC(=O)CCC(=O)CC(=O)C1=NS(=O)(=O)c2nc(S(N)(=O)=O)c(Cl)cc2N1`, the TGI in the experiment on RXF-631 renal and in the experiment on LXFL 529 NSCLC was above 100 µM in each case.
For the compound `O=C(O)CCCCCCC[C@@H]1S[C@H]1CCCCCCO`, the TGI with SN12K1 renal, with P388/ADR leukemia and in the experiment on P388 leukemia was above 100 µM throughout.
For `N#C[S-].[Nd+3].c1cnc2c(c1)ccc1cccnc12.c1cnc2c(c1)ccc1cccnc12.c1cnc2c(c1)ccc1cccnc12`, in the experiment with LXFL 529 NSCLC, the GI50 is 1840 nM and the TGI is 14.8 µM.
As to `CCSc1nc(N)c2c(-c3ccc(OC)c(OC)c3)c3c(nc2n1)CCCC3`, the TGI in the experiment with BT-549 breast was above 100 µM.
`Cc1cc(NC(=S)Nc2ccccc2)c(NC(=S)Nc2ccccc2)cc1C`: the values for the TGI with SN12K1 renal, with P388/ADR leukemia and in the experiment with P388 leukemia were above 59.1 µM, 19.1 µM and 13.5 µM, respectively.
As to `CC(C)=CC1C(COC(=O)c2cc3c(cc2Cl)OCO3)C1(C)C` (configuration not stated), in the experiment on BT-549 breast, the TGI came out at 81.8 µM.

The values are drawn from PubChem BioAssay (NCI).
